According to patent publication US20090264415A2 (priority 2004, published 2009):
Read-outs that look alike come from different tables or passages of the source.

Columns and labels:
[1] = test system: peripheral blood mononuclear cells (PBMC) stimulated with allogeneic PBMC or EBV-transformed human B cells (RPMI1788); test: Mixed lymphocyte reaction (MLR) assay; type: cell-based; details: 50% suppression of the MLR, [3H]-thymidine incorporation, read-out: MLR
How it was run: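 Compounds, held as 10 mM DMSO stocks and diluted in culture medium, were added to PBMC stimulated by 30 Gy-irradiated allogeneic PBMC or RPMI1788 cells. Proliferation was read as [3H]-thymidine uptake (1 μCi, final 16 h) after 5 days at 37° C. Inhibition was derived from cpm.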

[2] = test system: production of human TNF-α by PBMC in response to LPS; test: TNF-α assay (LPS-stimulated PBMC, sandwich ELISA); type: cell-based; details: LPS 1 μg/ml, 72 hours, read-out: TNF α
Experimental: Peripheral blood mononuclear cells (herein referred as PBMC), in response to stimulation by lipopolysaccharide (hereinafter LPS), a gram-negative bacterial endotoxin, produce various […], in particular human TNF-α. Inhibition of the activation of PBMC can therefore be measured by the level of suppression of the production of TNF-α by PBMC in response to stimulation by LPS. Inhibition measurement was performed as follows: PBMC were isolated from heparinized peripheral blood by density gradient centrifugation over Lymphoprep (commercially available from Nycomed, Norway). LPS was then added to the PMBC suspension in complete medium (10^6 cells/ml) at a final concentration of 1 μg/ml. The pteridine derivative to be tested was added at different concentrations (0.1 μM, 1 μM and 10 μM) and the cells were incubated at 37° C. for 72 hours in 5% CO2. The supernatants were collected, then TNF-α concentrations were measured with respectively an anti-TNF-α antibody in a sandwich ELISA (Duo Set ELISA human TNFα, commercially available from R&D Systems, United Kingdom). The colorimetric reading of the ELISA was measured by a Multiskan RC plate reader (commercially available from ThermoLabsystems, Finland) at 450 nm (reference wavelength: 690 nm). Data analysis was performed with Ascent software 2.6. (also from ThermoLabsystems, Finland): a standard curve (recombinant human TNFα) was drawn and the amount (pg/ml) of each sample on the standard curve was determined. The % suppression of human TNFα production by the pyrido[3,2-d]pyrimidine derivatives of the invention was calculated using the formula: [formula]

SMILES	IC50 ([1]; Homo sapiens, RPMI-1788)	IC50 ([2]; Homo sapiens, PBMC)	IC50 [1]	IC50 [2]
COc1ccc(-c2ccc3nc(N)nc(N4CC[C@H](N)C4)c3n2)cc1OC [Example 219, 2-amino-4-[(S)-3-(amino)pyrrolidine]-6-(3,4-dimethoxyphenyl)-pyrido[3,2-d]pyrimidine]	5500 nM	1900 nM	–	–
COc1nc(N2CCN(C(=O)Nc3cccc(C)c3)CC2)c2nc(-c3ccc(OC)c(OC)c3)ccc2n1 [Example 90, 2-methoxy-4-[(N-3-methyl-phenylcarbamoyl)-piperazin-1-yl]-6-(3,4-dimethoxy-phenyl)-pyrido[3,2-d]pyrimidine]	–	–	140 nM	500 nM
COc1ccc(-c2ccc3nc(N)nc(NCCN4CCOCC4)c3n2)cc1OC [Example 33, 2-amino-4-[4-(2-aminoethyl)morpholino]-6-(3,4-dimethoxyphenyl)-pyrido[3,2-d]pyrimidine]	–	–	1900 nM	700 nM
COc1ccc(-c2ccc3ncnc(N4CCNCC4)c3n2)cc1C [Example 116, 4-(piperazin-1-yl)-6-(3-methyl-4-methoxyphenyl)-pyrido[3,2-d]pyrimidine]	5100 nM	8100 nM	–	–
COc1ccc(-c2ccc3nc(N)nc(NC4CCCN(C(=O)OC(C)(C)C)C4)c3n2)cc1OC (stereo not drawn) [Example 257, 2-amino-4-[(1-Boc-piperidin-3-yl)amino]-6-(3,4-dimethoxyphenyl)-pyrido[3,2-d]pyrimidine]	300 nM	600 nM	–	–
Nc1nc(N2CCOCC2)c2nc(-c3ccncc3)ccc2n1 [Example 234, 2-amino-4-morpholino-6-(4-pyridinyl)-pyrido[3,2-d]pyrimidine]	700 nM	500 nM	–	–
COc1ccc(-c2ccc3nc(N)nc(Nc4ccc5c(c4)OCO5)c3n2)cc1OC [Example 28, 2-amino-4-[3,4-(methylenedioxy)aniline]-6-(3,4-dimethoxyphenyl)pyrido[3,2-d]pyrimidine]	–	–	700 nM	800 nM
COc1cc(-c2ccc3nc(N)nc(N4CCNCC4)c3n2)ccc1O [Example 100, 2-amino-4-(N-piperazin-1-yl)-6-(3-methoxy-4-hydroxyphenyl)-pyrido[3,2-d]pyrimidine]	–	–	3300 nM	2400 nM
Nc1nc(N2CCOCC2)c2nc(-c3ccsc3)ccc2n1 [Example 233, 2-amino-4-morpholino-6-(3-thiophene)-pyrido[3,2-d]pyrimidine]	–	–	4400 nM	3700 nM
COc1ccc(-c2ccc3ncnc(N4CCN(c5ccc(C)cc5)CC4)c3n2)cc1OC [Example 105, 4-(4-methyl-phenyl-piperazin-1-yl)-6-(3,4-dimethoxy-phenyl)-pyrido[3,2-d]pyrimidine]	–	–	800 nM	90 nM
COc1ccc(-c2ccc3nc(N)nc(N4CC[C@H](NC(=O)COc5ccc(Cl)cc5)C4)c3n2)cc1OC [Example 220]	4300 nM	1800 nM	–	–
COc1cc(-c2ccc3nc(N)nc(N4CCOCC4)c3n2)ccc1OC(C)C [Example 99, 2-amino-4-(N-morpholino)-6-(4-isopropoxy-3-methoxy-phenyl)-pyrido[3,2-d]pyrimidine]	–	–	700 nM	1000 nM
COc1ccc(-c2ccc3nc(N)nc(N4CC[C@@H](NC(=O)COc5ccc(Cl)cc5)C4)c3n2)cc1OC [Example 267]	700 nM	2500 nM	–	–
COc1ccc(-c2ccc3nc(N(C)C)nc(N4CCN(C(=O)Nc5cccc(C)c5)CC4)c3n2)cc1OC [Example 15]	–	–	400 nM	3300 nM
CCOc1ccc(-c2ccc3nc(N)nc(N4CCOCC4)c3n2)cc1F [Example 166, 2-amino-4-morpholino-6-(3-fluoro-4-ethoxy-phenyl)-pyrido[3,2-d]pyrimidine]	700 nM	800 nM	–	–
CC(=O)N1CCN(c2nc(N)nc3ccc(-c4ccc5c(c4)OCO5)nc23)CC1 [Example 190, 2-amino-4-[N-acetyl-piperazin-1-yl]-6-(3,4-methylenedioxyphenyl)-pyrido[3,2-d]pyrimidine]	800 nM	4800 nM	–	–
COc1ccc(-c2ccc3nc(N)nc(N4CCN(Cc5ccc6c(c5)OCO6)CC4)c3n2)cc1OC [Example 50, 2-amino-4-(1-piperonyl-piperazin-1-yl)-6-(3,4-dimethoxyphenyl)-pyrido[3,2-d]pyrimidine]	–	–	7400 nM	8500 nM

SMILES	IC50 ([1]; Homo sapiens, RPMI-1788)	IC50 ([2]; Homo sapiens, PBMC)	IC50 [1]	IC50 [2]
COc1cc(-c2ccc3nc(N)nc(N4CCN(C(=O)Nc5ccc(F)cc5)CC4)c3n2)ccc1OC(C)C [Example 103, 2-amino-4-[(N-4-fluoro-phenyl-carbamoyl)-piperazin-1-yl]-6-(4-isopropoxy-3-methoxy-phenyl)-pyrido[3,2-d]pyrimidine]	–	–	70 nM	6400 nM
COc1ccc(-c2ccc3nc(N)nc(NC4CCN(C(=O)Nc5cccc(C)c5)CC4)c3n2)cc1OC [Example 263]	70 nM	500 nM	–	–
Nc1nc(N2CCN(CC(=O)Nc3nccs3)CC2)c2nc(-c3ccc4c(c3)OCO4)ccc2n1 [Example 191]	400 nM	3500 nM	–	–
Cc1ccc(-c2ccc3nc(N)nc(N4CCOCC4)c3n2)s1 [Example 235, 2-amino-4-morpholino-6-(5-methyl-2-thienyl)-pyrido[3,2-d]pyrimidine]	3400 nM	1800 nM	–	–
Nc1nc(N2CCN(C(=O)COc3ccc(Cl)cc3)CC2)c2nc(-c3ccc4c(c3)OCO4)ccc2n1 [Example 193, 2-amino-4-[N-(4-chlorophenoxy-acetyl)-piperazin-1-yl]-6-(3,4-methylenedioxyphenyl)-pyrido[3,2-d]pyrimidine]	40 nM	5800 nM	–	–
Clc1ccc(-c2ccc3ncnc(N4CCOCC4)c3n2)cc1 [Example 124, 4-morpholino-6-(4-chlorophenyl)-pyrido[3,2-d]pyrimidine]	7200 nM	10000 nM	–	–
COc1ccc(-c2ccc3ncnc(N4CCN(C(=O)Nc5cccc(Cl)c5)CC4)c3n2)cc1OCC1CC1 [Example 215, 4-[N-(3-chloro-phenylcarbamoyl)-piperazin-1-yl]-6-(3-cyclopropylmethoxy-4-methoxy-phenyl)-pyrido[3,2-d]pyrimidine]	200 nM	800 nM	–	–
Nc1nc(N2CCOCC2)c2nc(-c3ccc4[nH]ccc4c3)ccc2n1 [Example 237, 2-amino-4-morpholino-6-(5-indolyl)-pyrido[3,2-d]pyrimidine]	800 nM	2600 nM	–	–
COc1ccc(-c2ccc3nc(N)nc(NCCCNC(=O)COc4ccc(Cl)cc4)c3n2)cc1OC [Example 266, 2-amino-4-[3-N-(4-chlorophenoxy-acetyl)-3-amino-propane-amine-1-N-yl]-6-(3,4-dimethoxyphenyl)-pyrido[3,2-d]pyrimidine]	700 nM	900 nM	–	–
Nc1nc(N2CCOCC2)c2nc(-c3ccc(Cl)s3)ccc2n1 [Example 241, 2-amino-4-morpholino-6-(5-chloro-2-thienyl)-pyrido[3,2-d]pyrimidine]	2200 nM	5400 nM	–	–
COc1cc(-c2ccc3nc(N)nc(N4CCOCC4)c3n2)ccc1O [Example 96, 2-amino-4-(N-morpholino)-6-(4-hydroxy-3-methoxy)-pyrido[3,2-d]pyrimidine]	–	–	800 nM	600 nM
COc1cc(-c2ccc3nc(N)nc(N4CCN(C(=O)Nc5cccc(C)c5)CC4)c3n2)ccc1O [Example 104, 2-amino-4-[(N-3-methyl-phenyl-carbamoyl)-piperazin-1-yl]-6-(4-hydroxy-3-methoxyphenyl)-pyrido[3,2-d]pyrimidine]	–	–	400 nM	300 nM
COc1ccc(-c2ccc3nc(N)nc(NCCNC(=O)COc4ccc(Cl)cc4)c3n2)cc1OC [Example 265]	300 nM	3900 nM	–	–
COc1ccc(-c2ccc3nc(N)nc(N4CCN(CC(=O)Nc5ccccn5)CC4)c3n2)cc1OC [Example 274, 2-amino-4-(N-pyridinylacetamid-2-yl-piperazin-1-yl)-6-(3,4-dimethoxyphenyl)-pyrido[3,2-d]pyrimidine]	–	80 nM	–	–
COc1ccc(-c2ccc3nc(N)nc(N4CCN(CC(=O)N5CCOCC5)CC4)c3c2)cc1OC [Example 275, 2-amino-4-[N-(piperazino)-acetyl-morpholino]-6-(3,4-dimethoxyphenyl)-pyrido[3,2-d]pyrimidine]	–	97 nM	–	–
COc1ccc(-c2ccc3nc(N)nc(N4CCN(CC(=O)N5CCCC5)CC4)c3n2)cc1OC [Example 273, 2-amino-4-(N-pyrrolidinyl-acetamid-2-yl-piperazin-1-yl)-6-(3,4-dimethoxyphenyl)pyrido[3,2-d]pyrimidine]	–	80 nM	–	–
